# Data: patent publication US10654884B2 (Vitae Pharmaceuticals, Inc., priority 2014, dated 2020)
# Legend:
# [1] = molecular target: T1, human CD73 (Homo sapiens, UniProt P21589); assay: Inhibition of 5′-Nucleotidase Activity of CD73 (Assay 1); type: biochemical; details: human CD73 4 ng/ml, 50 μM CMP, 20 min at RT, malachite green readout; read-out: Assay 1: IC50, inhibition of 5′-nucleotidase activity of CD73
# T1 construct: purchased R&D Systems 5795-EN-010
# T1 sequence (P21589 27-549): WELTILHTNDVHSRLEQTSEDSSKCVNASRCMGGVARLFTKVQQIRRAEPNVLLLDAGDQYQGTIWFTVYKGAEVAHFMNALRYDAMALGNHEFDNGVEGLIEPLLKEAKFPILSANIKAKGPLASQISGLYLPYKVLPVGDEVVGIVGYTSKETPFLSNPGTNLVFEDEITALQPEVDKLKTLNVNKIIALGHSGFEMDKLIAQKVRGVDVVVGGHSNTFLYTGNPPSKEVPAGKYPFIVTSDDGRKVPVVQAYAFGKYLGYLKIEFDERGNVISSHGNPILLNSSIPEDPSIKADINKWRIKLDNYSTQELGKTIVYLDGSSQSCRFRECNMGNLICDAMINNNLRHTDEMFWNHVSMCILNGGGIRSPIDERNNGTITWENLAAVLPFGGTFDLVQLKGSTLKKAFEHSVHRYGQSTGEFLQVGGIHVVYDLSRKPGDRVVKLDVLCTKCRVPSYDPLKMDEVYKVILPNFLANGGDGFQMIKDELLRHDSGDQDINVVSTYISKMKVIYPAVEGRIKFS
# In short: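 Human CD73 (4 ng/ml final) was incubated with 50 μM CMP in 25 mM Tris-HCl pH 7.4, 0.005% Brij-35 for 20 min at RT. Reactions were stopped with malachite green reagent and absorbance was read at 620 nm. IC50 came from a 4-parameter logistic fit.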
# [2] = molecular target: T2, CD73 on U138 neuroglioma cells (Homo sapiens, UniProt P21589); assay: Inhibition of Ecto-5′-Nucleotidase Activity in U138 Neuroglioma Cells (Assay 2); type: cell-based; details: 50 μM CMP, 2 hr at 37° C., malachite green readout, read-out: Assay 2: IC50, inhibition of ecto-5′-nucleotidase activity in U138 neuroglioma cells
# T2 construct: U138 neuroglioma cells, which express CD73 on their surface; endogenous in cells; host or cells: U138 neuroglioma cells (ATCC)
# T2 sequence (P21589 27-549): T1 sequence (P21589 27-549)
# Protocol: Inhibition of Ecto-5′-Nucleotidase Activity in U138 Neuroglioma Cells (Assay 2)
# U138 cells were obtained from the American Type Culture Collection (ATCC) (Manassas, Va.), and cultured in complete growth media (DMEM, 10% FBS, 1 mM L-glutamine, 100 U penicillin-streptomycin) at 37° C., 5% CO2. The day before the experiment, cells were seeded at 2,500 cells/well in 100 μL of complete media into 96-well plates. Cells were washed twice with 200 μL of assay buffer (20 mM HEPES, pH 7.4, 137 mM NaCl, 5.4 mM KCl, 1.3 mM CaCl2, 4.2 mM NaHCO3, 1 mg/mL glucose) to remove residual inorganic phosphate. After washing, assays contained serial dilutions of test compounds and 50 μM of cytidine-5′-monophosphate (CMP) in a total volume of 200 μL of assay buffer, with a final DMSO concentration ≤0.1%. After 2 hr at 37° C., 5% CO2, 100 μL of supernatant was removed from the cells and the concentration of inorganic phosphate was determined using malachite green reagent. IC50 values for test compounds were determined from nonlinear regression fits of the data using XLfit (IDBS).
Compound,IC50 [1] [nM],IC50 [2] [nM]
"CCOC(=O)C(OC[C@H]1C[C@@H](n2nnc3c(N[C@@H]4CCOC4)nc(Cl)nc32)[C@H](O)[C@@H]1O)P(=O)(O)O (stereo partly drawn) [Example 90, (1-(((1R,2R,3S,4R)-4-(5-chloro-7-(((R)-tetrahydrofuran-3-yl)amino)-3H-[1,2,3]triazolo[4,5-d]pyrimidin-3-yl)-2,3-dihydroxycyclopentyl)methoxy)-2-ethoxy-2-oxoethyl)phosphonic Acid]",< 100,< 100
"O=C(O)C(OC[C@H]1O[C@@H](n2cnc3c(N[C@H]4CCOC4)nc(Cl)nc32)[C@H](O)[C@@H]1O)C(=O)O [Example 83, 2-(((2R,3S,4R,5R)-5-(2-chloro-6-(((S)-tetrahydrofuran-3-yl)amino)-9H-purin-9-yl)-3,4-dihydroxytetrahydrofuran-2-yl)methoxy)malonic acid]",100 to 1000,> 1000
"CCOC(=O)[C@H](OC[C@H]1O[C@@H](n2cnc3c(N)nc(F)nc32)[C@H](O)[C@@H]1O)P(=O)(O)O (single isomer, unassigned) [Example 52a]",100 to 1000,> 1000
"COc1nc(OC)c2ncn([C@@H]3O[C@H](COC(C(=O)OC(C)(C)C)P(=O)(O)O)[C@@H](O)[C@H]3O)c2n1 (stereo partly drawn) [Example 33, (2-(tert-butoxy)-1-(((2R,3S,4R,5R)-5-(2,6-dimethoxy-9H-purin-9-yl)-3,4-dihydroxytetrahydrofuran-2-yl)methoxy)-2-oxoethyl)phosphonic Acid]",100 to 1000,100 to 1000
"CCOC(=O)[C@H](OC[C@H]1O[C@@H](n2cnc3c(N)nc(C(F)(F)F)nc32)[C@H](O)[C@@H]1O)P(=O)(O)O (single isomer, unassigned) [Example 42]",< 100,100 to 1000
"CCOC(=O)[C@H](OC[C@H]1O[C@@H](n2ccc(=O)n(C)c2=O)[C@H](O)[C@@H]1O)P(=O)(O)O (single isomer, unassigned) [Example 30]",100 to 1000,> 1000

# Other lines, results leading:
IC50 [1] [nM],IC50 [2] [nM],Compound
< 100,< 100,"COCC(OC[C@H]1O[C@@H](n2cnc3c(N)nc(Cl)nc32)[C@H](O)[C@@H]1O)(C(=O)O)C(=O)O [Example 5, 2-(((2R,3S,4R,5R)-5-(6-amino-2-chloro-9H-purin-9-yl)-3,4-dihydroxytetrahydrofuran-2-yl)methoxy)-2-(methoxymethyl)malonic acid]"
< 100,< 100,"CCOC(=O)[C@H](OC[C@H]1O[C@@H](n2cnc3c(NCc4ccccc4)nc(Cl)nc32)[C@H](O)[C@@H]1O)P(=O)(O)O (single isomer, unassigned) [Example 24]"
< 100,100 to 1000,"CC(C)CS(=O)(=O)[C@H](OC[C@H]1O[C@@H](n2cnc3c(N)nc(Cl)nc32)[C@H](O)[C@@H]1O)P(=O)(O)O (single isomer, unassigned) [Example 13]"
100 to 1000,100 to 1000,"O=C(O)C(Cc1ccc(F)cc1)(OC[C@H]1O[C@@H](n2cnc3c(NC4CCCC4)nc(Cl)nc32)[C@H](O)[C@@H]1O)C(=O)O [Example 97, 2-(((2R,3S,4R,5R)-5-(2-chloro-6-(cyclopentylamino)-9H-purin-9-yl)-3,4-dihydroxytetrahydrofuran-2-yl)methoxy)-2-(4-fluorobenzyl)malonic acid]"
< 100,< 100,"Nc1nc(Cl)nc2c1ncn2[C@@H]1O[C@H](COC(Cc2ccc(Cl)cc2)(C(=O)O)C(=O)O)[C@@H](O)[C@H]1O [Example 47, 2-(((2R,3S,4R,5R)-5-(6-amino-2-chloro-9H-purin-9-yl)-3,4-dihydroxytetrahydrofuran-2-yl)methoxy)-2-(4-chlorobenzyl)malonic acid]"
< 100,< 100,"Nc1nc(Cl)nc2c1ncn2[C@@H]1O[C@H](COC(Cc2c(F)cccc2F)(C(=O)O)C(=O)O)[C@@H](O)[C@H]1O [Example 84, 2-(((2R,3S,4R,5R)-5-(6-amino-2-chloro-9H-purin-9-yl)-3,4-dihydroxytetrahydrofuran-2-yl)methoxy)-2-(2,6-difluorobenzyl)malonic acid]"
